Literature values in patent EP3865125A1, “PHARMACEUTICAL COMPOSITION COMPRISING ELIGLUSTAT” (Kashiv Biosciences, LLC, priority 2020, dated 2021).
Read-outs that look alike come from different tables or passages of the source.

What was measured:
[1] = mice, 50-mg/kg dose
[2] = rats, 50-mg/kg dose
[3] = dogs, 50-mg/kg dose
[4] = not given; remark: listed apart in the source

For `CCCCCCCC(=O)N[C@H](CN1CCCC1)[C@H](O)c1ccc2c(c1)OCCO2` [Eliglustat], the oral bioavailability [1] is listed as 8%, the oral bioavailability [2] is listed as 39% and the absolute bioavailability (CERDELGA capsule, CHMP assessment report) is listed as 4.49% ± 4.13%. For the same molecule, the “systemic exposure AUC0-12 at steady state compared to after the first dose (AUC0-inf)” value (multiple oral doses of 84 mg twice daily in EMs) was “up to 2 fold”, the oral bioavailability (oral route, significant first pass metabolism) was “less than 5%” and the oral bioavailability [3] was 42%. The solubility [4] was “high solubility”.
